# Test results: ChEMBL document CHEMBL1147023, “(R)-sila-venlafaxine: a selective noradrenaline reuptake inhibitor for the treatment of emesis” (Bioorg Med Chem Lett, 2006)
# Activity calls are given as the source filed them. No cut-off for these calls is given here.
# How the values were obtained:
# [1] = tested on: Mustela putorius furo; assay: Activity against morphine-induced emesis in ferret at 50 mg/kg; format: functional, organism-based; set-up: dose 50 mg/kg
# [2] = target: T1, Voltage-gated L-type calcium channel (Homo sapiens, UniProt Q13936+Q13698+Q01668+O60840); assay: Inhibition of verapamil sensitive L type calcium channel by radioligand […] assay; format: protein assay
# [3] = tested on: Mustela putorius furo; assay: Activity against morphine-induced emesis in ferret at 1 mg/kg; format: functional, organism-based; set-up: dose 1 mg/kg
# [4] = Cmax in ferret at 5 mg/kg, po; format: ADME, organism-based, Mustela putorius furo; set-up: dose 5 mg/kg, route oral; details: in vivo
# [5] = Plasma half life in ferret at 5 mg/kg, po; format: ADME, organism-based, Mustela putorius furo; set-up: dose 5 mg/kg, route oral
# [6] = target: Sodium-dependent serotonin transporter (Homo sapiens, UniProt P31645); assay: Inhibition of serotonin reuptake at human recombinant serotonin transporter
# [7] = tested on: Mustela putorius furo; assay: Inhibition of morphine-induced emesis in ferret at 5 mg/kg; format: functional
# [8] = target: Sodium-dependent noradrenaline transporter (Homo sapiens, UniProt P23975); assay: Inhibition of noradrenaline reuptake at human recombinant noradrenaline transporter
# [9] = target: T1, Voltage-gated L-type calcium channel; assay: Inhibition of diltiazem sensitive L type calcium channel by radioligand […] assay; format: protein assay
# [10] = Inhibitory activity against site 2 of sodium channel by radioligand […] assay
# Sequence of Sodium-dependent serotonin transporter (P31645 whole entry): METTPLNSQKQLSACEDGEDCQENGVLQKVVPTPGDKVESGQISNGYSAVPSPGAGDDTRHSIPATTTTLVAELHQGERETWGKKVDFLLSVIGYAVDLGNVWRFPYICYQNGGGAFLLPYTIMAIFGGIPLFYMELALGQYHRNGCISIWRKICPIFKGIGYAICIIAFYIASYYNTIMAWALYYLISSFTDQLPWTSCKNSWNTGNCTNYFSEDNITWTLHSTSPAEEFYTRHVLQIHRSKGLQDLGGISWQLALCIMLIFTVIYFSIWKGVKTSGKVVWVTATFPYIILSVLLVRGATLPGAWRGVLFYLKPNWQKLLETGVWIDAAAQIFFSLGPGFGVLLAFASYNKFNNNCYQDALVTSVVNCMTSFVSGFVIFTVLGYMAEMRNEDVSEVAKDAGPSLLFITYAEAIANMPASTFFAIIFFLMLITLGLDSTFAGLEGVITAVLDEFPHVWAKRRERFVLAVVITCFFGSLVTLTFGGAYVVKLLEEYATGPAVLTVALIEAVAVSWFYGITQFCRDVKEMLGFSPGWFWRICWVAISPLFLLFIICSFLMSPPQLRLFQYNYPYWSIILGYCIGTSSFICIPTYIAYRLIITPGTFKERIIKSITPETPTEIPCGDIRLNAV
# Sequence of Sodium-dependent noradrenaline transporter (P23975 whole entry): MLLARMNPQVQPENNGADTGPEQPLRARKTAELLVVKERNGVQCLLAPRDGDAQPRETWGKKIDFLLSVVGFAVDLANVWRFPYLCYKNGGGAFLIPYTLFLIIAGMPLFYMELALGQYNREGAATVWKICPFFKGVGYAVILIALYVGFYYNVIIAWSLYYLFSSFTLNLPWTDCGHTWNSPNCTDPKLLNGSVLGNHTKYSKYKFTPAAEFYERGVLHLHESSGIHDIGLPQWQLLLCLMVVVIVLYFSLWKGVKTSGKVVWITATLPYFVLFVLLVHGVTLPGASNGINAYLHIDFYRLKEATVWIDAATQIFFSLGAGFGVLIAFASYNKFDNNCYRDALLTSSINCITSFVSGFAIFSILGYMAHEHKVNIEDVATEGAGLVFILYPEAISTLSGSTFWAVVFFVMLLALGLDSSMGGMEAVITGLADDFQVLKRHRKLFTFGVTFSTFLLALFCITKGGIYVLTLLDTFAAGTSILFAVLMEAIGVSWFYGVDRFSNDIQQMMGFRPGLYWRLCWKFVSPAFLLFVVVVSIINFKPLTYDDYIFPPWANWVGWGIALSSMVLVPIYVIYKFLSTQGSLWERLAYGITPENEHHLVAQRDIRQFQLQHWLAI
compound,measurement,setting,value
COc1ccc([C@H](CN(C)C)[Si]2(O)CCCCC2)cc1,Activity,[1],Active
same,IC50,[2],8.6 µM
same,Activity,[3],inactive
same,Cmax,[4],225 ng/mL
same,half-life,[5],1.1 h
same,IC50,[6],4.2 µM
same,inhibition in vivo at 5 mg/kg,[7],93%
same,IC50,[8],0.2 µM
same,IC50,[9],2.7 µM
same,IC50,[10],5.1 µM
